Here are results for 23 molecules from patent publication US9360486B2, “Allergen fragments” (Biomay AG, priority 2007, dated 2016).

“Also recorded” adds a separate entry of the source.

Assay [1] relates to Amb a 1-specific T cell lines (TCL). Nature of the assay: T cell epitope mapping of Amb a 1.3: proliferation (3H-thymidine uptake) of TCL stimulated with synthetic peptides. It is filed as cell-based, human. To be noted: for No. positive patients SI > 3 / No. positive patients SI > 5 / % (positive patients SI > 3) / % (positive patients SI > 5): TCL from 48 ragweed pollen-allergic patients, peptide 5 μg/ml; for No. positive patients SI > 3 / No. positive patients SI > 5: 3H-thymidine uptake after 48 hrs; for No. positive patients SI > 3 / % (positive patients SI > 3): stimulation index > 3; for No. positive patients SI > 5 / % (positive patients SI > 5): stimulation index > 5; for T cell activating region recognized by % of patients: classes of prevalence referring to SI>5, 48 TCL. In short, it runs like this: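 Amb a 1-specific TCL from ragweed-allergic patients, raised with ragweed extract or rAmb a 1.3, stimulated 48 h with 121 overlapping 12-mer peptides plus one C-terminal 13-mer (9-residue overlap) at 5 μg/ml. Proliferation by 3H-thymidine uptake; SI against the mean cpm of the ten least stimulating peptides, epitope when SI ≥3.0.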

In assay [2] the test system is IgE of sera from ragweed pollen allergic patients. The experiment in a line: SDS-PAGE IgE immunoblot with patients' sera. It counts as binding, human. On the procedure: Membrane strips were incubated with sera from ragweed pollen allergic patients (lanes 1-29) or with serum from a non-allergic donor (lane C). Bound IgE was detected with ^125I-labeled goat anti-human IgE. Ragweed pollen-sensitized patients were recruited in Austria (lanes 1-13) or in Italy (lanes 14-29).
The proteins were analyzed via SDS-PAGE using 15% acrylamide gels and 0.1% Coomassie staining with a molecular weight standard RPN 756 (GE Healthcare Life Sciences). Sera from allergic patients were tested for positive IgE-reactivity. rAmb a 1 and rArt v 6 were separated on 15% (w/w) polyacrylamide gels and electroblotted onto a PVDF membrane. After blocking the non-specific protein binding sites with Blocking buffer (per L: 7.5 g Na2HPO4, 1 g NaH2PO4, 5 g BSA and 5 mL Tween 20), the membrane was incubated with patients' sera (diluted 1:10 in Blocking buffer) for more than 6 hours at room temperature. The membrane was washed for at least 30 minutes with Blocking buffer before it was incubated with radiolabeled [^125 I]-anti human IgE (RAST, 5 µCi, MedPro) diluted in Blocking buffer (1:40) overnight at room temperature. After a second 30-minute wash, the membrane was placed onto an imaging plate. The screen was exposed for at least 24 hours and developed using a PhosphoImager Bas-1800 II scanner for detection and the instrument's supporting software (Fujifilm).
nAmb a 1 undergoes spontaneously proteolysis during purification and it is cleaved into two chains, alpha and beta chain, respectively.
Background: Immunoblotting shows a protein as a band on a membrane.

For the molecule “TGTGAAESMAWN (Amb a 1 fragment) [Peptide 102]”, in assay [1], the “reactivity with T cells isolated from allergic individuals” value (shortened to “reactivity with T cells isolated”) was “reactivity with T cells”, the “No. positive patients SI > 3” value was 9, the “No. positive patients SI > 5” value is on record as 6 and the “% (positive patients SI > 3)” value is listed as 18.8%. Also, the “% (positive patients SI > 5)” value in assay [1] was 12.5%.

As for “TIDGRGVKVEII (Amb a 1 fragment) [Peptide 39]”, in assay [1], the “reactivity with T cells isolated” value is “reactivity with T cells”, the “No. positive patients SI > 3” value is given as 19, the “No. positive patients SI > 5” value stood at 16 and the “% (positive patients SI > 3)” value was determined as 39.6%. The “% (positive patients SI > 5)” value in assay [1] was 33.3%.

Take “TQQSKAILLGAD (Amb a 1 fragment) [Peptide 72]”: in assay [1], the “No. positive patients SI > 3” value is on record as 4, the “No. positive patients SI > 5” value came out at 2, the “% (positive patients SI > 3)” value came out at 8.3% and the “% (positive patients SI > 5)” value was found to be 4.2%.

As for “TSGSDPVLTPVQ (Amb a 1 fragment) [Peptide 111]”, in assay [1], the “reactivity with T cells isolated” value is on record as “reactivity with T cells”, the “No. positive patients SI > 3” value came to 16, the “No. positive patients SI > 5” value turned out to be 11 and the “% (positive patients SI > 3)” value is listed as 33.3%. In addition, the “% (positive patients SI > 5)” value in assay [1] was determined as 22.9%.

“TSNLDDDVANPK (Amb a 1 fragment) [Peptide 23]”: in assay [1], the “No. positive patients SI > 3” value was 2, the “No. positive patients SI > 5” value was 1, the “% (positive patients SI > 3)” value is listed as 4.2% and the “% (positive patients SI > 5)” value is 2.1%.

As to “TYAIGGSSAPTI (Amb a 1 fragment) [Peptide 91]”, in assay [1], the “T cell reactivity with samples from individuals suffering from ragweed pollen allergy” value is “high T cell reactivity”, the “reactivity with T cells isolated” value is reported as “reactivity with T cells”, the “No. positive patients SI > 3” value is listed as 13 and the “No. positive patients SI > 5” value is reported as 11. For the same molecule, in assay [1], the “% (positive patients SI > 3)” value was 27.1%, the “% (positive patients SI > 5)” value was found to be 22.9% and the “T cell activating region recognized by % of patients” value was “recognized by 22.9%”.

Consider “TYGGKWGDVYTV (Amb a 1 fragment) [Peptide 19]”, for which, in assay [1], the “No. positive patients SI > 3” value worked out at 2, the “No. positive patients SI > 5” value is listed as 0, the “% (positive patients SI > 3)” value was 4.2% and the “% (positive patients SI > 5)” value was 0.0%.

For “VAFNMFTDNVDQ (Amb a 1 fragment) [Peptide 80]”, in assay [1], the “reactivity with T cells isolated” value was “reactivity with T cells”, the “No. positive patients SI > 3” value came to 10, the “No. positive patients SI > 5” value turned out to be 6 and the “% (positive patients SI > 3)” value is reported as 20.8%. Moreover, the “% (positive patients SI > 5)” value in assay [1] came to 12.5%.

For “VAFNMFTDNVDQRMP (Amb a 1 fragment) [Peptide 80-81]”, in assay [1], the “reactivity with T cells isolated” value is on record as “reactivity with T cells” and the “T cell activating region recognized by % of patients” value is “recognized by 12.5%”.

For the molecule “VDQRMPRCRFGF (Amb a 1 fragment) [Peptide 83]”, in assay [1], the “reactivity with T cells isolated” value was “reactivity with T cells”, the “No. positive patients SI > 3” value is recorded as 10, the “No. positive patients SI > 5” value was 8 and the “% (positive patients SI > 3)” value stood at 20.8%. In assay [1], the “% (positive patients SI > 5)” value worked out at 16.7% and the “T cell activating region recognized by % of patients” value was “recognized by 16.7%”.

As for “VKVEIINGGLTL (Amb a 1 fragment) [Peptide 41]”, in assay [1], the “reactivity with T cells isolated” value is listed as “reactivity with T cells”, the “No. positive patients SI > 3” value was found to be 5, the “No. positive patients SI > 5” value amounted to 1 and the “% (positive patients SI > 3)” value worked out at 10.4%. The “% (positive patients SI > 5)” value in assay [1] was determined as 2.1%.

As for “VKVLPGGMIKSN (Amb a 1 fragment) [Peptide 50]”, in assay [1], the “reactivity with T cells isolated” value is reported as “reactivity with T cells”, the “No. positive patients SI > 3” value is recorded as 5, the “No. positive patients SI > 5” value is on record as 4 and the “% (positive patients SI > 3)” value is recorded as 10.4%. Further, in assay [1], the “% (positive patients SI > 5)” value was 8.3%.

Regarding “VLTPVQSAGMIP (Amb a 1 fragment) [Peptide 113]”, in assay [1], the “No. positive patients SI > 3” value is given as 4, the “No. positive patients SI > 5” value was found to be 1, the “% (positive patients SI > 3)” value is on record as 8.3% and the “% (positive patients SI > 5)” value was 2.1%.

As to “VNNNYDRWGTYA (Amb a 1 fragment) [Peptide 88]”, in assay [1], the “reactivity with T cells isolated” value was “reactivity with T cells”, the “No. positive patients SI > 3” value was 10, the “No. positive patients SI > 5” value came out at 4 and the “% (positive patients SI > 3)” value is reported as 20.8%. Also, the “% (positive patients SI > 5)” value in assay [1] is listed as 8.3%.

For the molecule “VNNNYDRWGTYAIGG (Amb a 1 fragment) [Peptide 88-89]”, in assay [1], the “reactivity with T cells isolated” value is listed as “reactivity with T cells” and the “T cell activating region recognized by % of patients” value is reported as “recognized by 12.5%”.

For the molecule “VQDKGMLATVAF (Amb a 1 fragment) [Peptide 77]”, in assay [1], the “reactivity with T cells isolated” value was “reactivity with T cells”, the “No. positive patients SI > 3” value is given as 7, the “No. positive patients SI > 5” value was 4 and the “% (positive patients SI > 3)” value worked out at 14.6%. Also, the “% (positive patients SI > 5)” value in assay [1] came out at 8.3%.

Regarding “VTLGSTHVTISN (Amb a 1 fragment) [Peptide 67]”, in assay [1], the “reactivity with T cells isolated” value was “reactivity with T cells”, the “No. positive patients SI > 3” value was found to be 6, the “No. positive patients SI > 5” value amounted to 2 and the “% (positive patients SI > 3)” value amounted to 12.5%. Also, the “% (positive patients SI > 5)” value in assay [1] amounted to 4.2%.

Take “VVNSDKTIDGRG (Amb a 1 fragment) [Peptide 37]”: in assay [1], the “reactivity with T cells isolated” value was “reactivity with T cells”, the “No. positive patients SI > 3” value worked out at 14, the “No. positive patients SI > 5” value was 9 and the “% (positive patients SI > 3)” value is given as 29.2%. Besides, the “% (positive patients SI > 5)” value in assay [1] is given as 18.8%.

Regarding “WENNRQALADCA (Amb a 1 fragment) [Peptide 13]”, in assay [1], the “No. positive patients SI > 3” value came out at 2, the “No. positive patients SI > 5” value is given as 0, the “% (positive patients SI > 3)” value came out at 4.2% and the “% (positive patients SI > 5)” value is 0.0%.

With “WRGKADWENNRQ (Amb a 1 fragment) [Peptide 11]”, in assay [1], the “No. positive patients SI > 3” value stood at 4, the “No. positive patients SI > 5” value turned out to be 2, the “% (positive patients SI > 3)” value came to 8.3% and the “% (positive patients SI > 5)” value is listed as 4.2%.

In the case of “WRSDKDLLENGA (Amb a 1 fragment) [Peptide 106]”, in assay [1], the “No. positive patients SI > 3” value is recorded as 3, the “No. positive patients SI > 5” value is on record as 1, the “% (positive patients SI > 3)” value came to 6.3% and the “% (positive patients SI > 5)” value was found to be 2.1%.

Turning to “YTVTSNLDDDVA (Amb a 1 fragment) [Peptide 22]”, in assay [1], the “No. positive patients SI > 3” value is 4, the “No. positive patients SI > 5” value stood at 4, the “% (positive patients SI > 3)” value amounted to 8.3% and the “% (positive patients SI > 5)” value is reported as 8.3%.

B1: beta chain: beta chain of naturally processed Amb a 1, N-terminal part, 138 amino acids (protein)
chain: AEGVGEILPSVNETRSLQACEAYNIIDKCWRGKADWENNRQALADCAQGFAKGTYGGKWGDVYTVTSNLDDDVANPKEGTLRFAAAQNRPLWIIFKNDMVINLNQELVVNSDKTIDGRGVKVEIINGGLTLMNVKNIIIHNINIHDVKVLPGGMIKSNDGP
modifications: Amb a 1 beta chain
notes: beta chain of naturally processed Amb a 1, N-terminal part, 138 amino acids
On to B1, for which, in assay [2], the “IgE reactivity of the Amb a 1 chains” value is listed as “strongly recognized; also recorded: contains most of the IgE epitopes of Amb a 1”. Besides, the “% of patients whose IgE recognized the chain” value in assay [2] (chains of nAmb a 1, sera from Italy, Canada and Austria (FIG. 9)) was 90%.
